Test results reported in patent US20250073185A1, “Composition Including Benzylaminoethanol Derivative as Active Ingredient for Prevention or Treatment of Metabolic Disease” (JLBIOTHERAPEUTICS, priority 2021, published 2025).

System: 3T3-L1 cells
Experiment: Cytotoxicity measurement (WST assay, EZ-Cytox)
Format: cell-based
Details: 3T3-L1 cells, 0.1, 1, 5, 10 and 25 μM, 48 hours
Protocol: After 48 hours, 10 μl of EZ-Cytox was added to each cell culture which was then incubated for 30 minutes, and the absorbance at 450 nm was measured using a microplate reader.

OCCNCc1cc(Br)ccc1OCc1ccc(F)c(C(F)(F)F)c1 [AZ1, 2-(5-bromo-2-(4-fluoro-3-(trifluoromethyl)benzyloxy)benzylamino)ethanol]
cytotoxicity (cell viability vs untreated cells): did not exhibit cytotoxicity
